The values below are quoted from earlier work in patent US20050154058A1, “Method of preparing hydroxytyrosol esters, esters thus obtained and use of same” (priority 2002, published 2005).

Each structure is given as a SMILES string.

For series [1] the following is noted: state of the art, compared in words with free hydroxytyrosol or usual additives.
For series [2] the following is noted: state of the art.

On to `CC(=O)OCCc1ccc(O)c(O)c1` [Example 1, 2-(3,4-dihydroxyphenyl)ethyl Acetate], for which the “antioxidant activity / protective capacity against oxidation” value in series [1] is on record as “the same activity towards oxidation as does free hydroxytyrosol itself”. Besides, the “solubility in lipophilic medium” value in series [2] is recorded as “liposoluble”.

On to `OCCc1ccc(O)c(O)c1` [Hydroxytyrosol, 2-(3,4-dihydroxyphenyl)ethanol], for which the “antioxidant activity / protective capacity against oxidation” value in series [1] is “much greater than the antioxidant additives normally used”. The “solubility in lipophilic medium” value in series [2] is listed as “virtually insoluble in lipophilic medium”.
